Assay results from ChEMBL document CHEMBL1149358, “Synthesis and dipeptidyl peptidase inhibition of N-(4-substituted-2,4-diaminobutanoyl)piperidines” (Bioorg Med Chem Lett, 2006).

Legend:
Dipeptidyl peptidase 4 = Dipeptidyl peptidase 4 (Homo sapiens, UniProt P27487); assay: Inhibition of DPP4
Dipeptidyl peptidase 8 = Dipeptidyl peptidase 8 (Homo sapiens, UniProt Q6V1X1); assay: Inhibition of DPP8
Homo sapiens = organism: Homo sapiens; assay: Selectivity for DPP2 over DPP8
Dipeptidyl peptidase 2 [1] = target: T1, Dipeptidyl peptidase 2 (Homo sapiens, UniProt Q9UHL4); assay: Inhibition of DPP II
Dipeptidyl peptidase 2 [2] = target: T1, Dipeptidyl peptidase 2; assay: Inhibition of DPP2

Dipeptidyl peptidase 8, sequence (Q6V1X1 whole entry): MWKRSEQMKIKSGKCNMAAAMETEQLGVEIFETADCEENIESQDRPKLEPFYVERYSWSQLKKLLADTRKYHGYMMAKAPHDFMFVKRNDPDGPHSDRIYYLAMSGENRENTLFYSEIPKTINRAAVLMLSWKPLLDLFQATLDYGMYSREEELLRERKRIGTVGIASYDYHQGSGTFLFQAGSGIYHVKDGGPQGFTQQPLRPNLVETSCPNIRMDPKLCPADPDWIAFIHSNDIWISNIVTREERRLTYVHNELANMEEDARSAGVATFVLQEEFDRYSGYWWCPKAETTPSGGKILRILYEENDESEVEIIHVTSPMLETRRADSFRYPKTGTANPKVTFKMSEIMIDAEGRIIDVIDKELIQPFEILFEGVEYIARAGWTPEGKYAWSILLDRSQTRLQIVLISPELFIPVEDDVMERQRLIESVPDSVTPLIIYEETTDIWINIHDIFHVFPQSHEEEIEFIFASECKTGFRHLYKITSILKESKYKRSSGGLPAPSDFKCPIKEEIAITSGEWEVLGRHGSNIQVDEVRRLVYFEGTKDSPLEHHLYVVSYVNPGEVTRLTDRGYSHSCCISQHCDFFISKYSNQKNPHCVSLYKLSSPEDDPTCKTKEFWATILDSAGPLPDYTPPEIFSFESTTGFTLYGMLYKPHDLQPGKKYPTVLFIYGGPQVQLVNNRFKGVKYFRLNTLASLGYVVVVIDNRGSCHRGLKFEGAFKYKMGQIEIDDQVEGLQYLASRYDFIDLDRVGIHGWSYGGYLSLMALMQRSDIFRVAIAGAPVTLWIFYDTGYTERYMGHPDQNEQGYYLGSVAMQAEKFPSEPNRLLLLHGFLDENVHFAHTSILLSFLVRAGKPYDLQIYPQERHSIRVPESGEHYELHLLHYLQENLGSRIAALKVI
Dipeptidyl peptidase 4, sequence (P27487 whole entry): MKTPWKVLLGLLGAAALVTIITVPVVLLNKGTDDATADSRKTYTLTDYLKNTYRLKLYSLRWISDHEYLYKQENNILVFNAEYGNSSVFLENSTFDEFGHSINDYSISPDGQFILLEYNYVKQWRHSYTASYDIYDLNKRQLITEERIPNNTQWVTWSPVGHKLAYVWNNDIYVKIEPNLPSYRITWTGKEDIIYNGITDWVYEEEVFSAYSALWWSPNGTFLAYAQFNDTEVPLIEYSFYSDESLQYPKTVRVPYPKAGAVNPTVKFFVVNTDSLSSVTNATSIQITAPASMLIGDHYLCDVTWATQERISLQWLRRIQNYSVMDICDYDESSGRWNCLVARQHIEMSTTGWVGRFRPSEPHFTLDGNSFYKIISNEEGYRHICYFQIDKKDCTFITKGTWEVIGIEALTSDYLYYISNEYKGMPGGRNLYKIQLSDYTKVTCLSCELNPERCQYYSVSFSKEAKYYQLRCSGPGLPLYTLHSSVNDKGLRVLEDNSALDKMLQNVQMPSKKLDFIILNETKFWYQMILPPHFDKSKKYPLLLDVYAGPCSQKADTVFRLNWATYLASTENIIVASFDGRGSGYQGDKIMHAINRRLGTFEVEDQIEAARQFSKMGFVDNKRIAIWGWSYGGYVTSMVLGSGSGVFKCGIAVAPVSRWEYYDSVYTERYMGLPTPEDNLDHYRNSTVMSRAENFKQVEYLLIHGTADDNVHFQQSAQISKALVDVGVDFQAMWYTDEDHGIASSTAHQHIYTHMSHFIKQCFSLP

IC50 (Dipeptidyl peptidase 4) [µM] | IC50 (Dipeptidyl peptidase 8) [µM] | Selectivity index (Homo sapiens) | Ki (Dipeptidyl peptidase 2 [1]) [nM] | IC50 (Dipeptidyl peptidase 2 [2]) [µM] | SMILES
> 100 | > 100 |  |  |  | CC[C@@H](C[C@H](N)C(=O)N1CCCCC1)NCc1ccc(Cl)cc1
196 | 142 | > 10000 | 0.082 | 0.00022 | N[C@@H](CCNCc1ccc(Cl)cc1)C(=O)N1CCCCC1
234 | > 100 |  |  |  | CCC(C)[C@@H](C[C@H](N)C(=O)N1CCCCC1)NCc1ccc(Cl)cc1 (some centres not stated)
> 125 | > 500 |  |  |  | N[C@@H](C[C@@H](Cc1ccccc1)NCc1ccc(Cl)cc1)C(=O)N1CCCCC1
> 125 | > 100 |  |  |  | CC(C)[C@@H](C[C@H](N)C(=O)N1CCCCC1)NCc1ccc(Cl)cc1
> 125 | > 100 |  |  |  | N[C@@H](C[C@H](Cc1ccccc1)NCc1ccc(Cl)cc1)C(=O)N1CCCCC1
> 250 |  |  |  |  | C[C@H](C[C@H](N)C(=O)N1CCCCC1)NCc1ccc(Cl)cc1
325 |  |  |  |  | C[C@@H](C[C@H](N)C(=O)N1CCCCC1)NCc1ccc(Cl)cc1
